Measurements taken from PMC3390202 (Biochemistry, 2011).

Biological target: rhodopsin (N2C,D282C and N2C,E113Q,D282C mutants) (Bos taurus, UniProt P02699, N2C/E113Q/D282C)
Assay: UV-visible absorption
Type: binding
Conditions: covalent; in the dark; inverse agonist chromophore; DDM, Hepes pH 7.5

Compound: CC1=C(/C=C/C(C)=C/C=C\C(C)=C\C=O)C(C)(C)CCC1 [11-cis-retinal]
- UV-visible absorption; 1D4-Sepharose copurification with transducin: Binding of 11-cis-retinal forces the protein into the inactive state
